Experimental data reported in patent US4652561A, “Naphtho[1,2-b]-1,4-thiazepinones” (Hoffmann-La Roche Inc., priority 1986, dated 1987).

Experiments:
Guinea Pig Ileum = assay: Guinea pig ileum assay - tonic contraction (calcium channel blocking activity); conditions: inhibition of K^+ (80 mM) induced tonic contraction, 37° C.
Protocol: GUINEA PIG ILEUM ASSAY--TONIC CONTRACTION
Male guinea-pigs weighing from 300-400 grams were stunned and bled. The abdomen was opened and 10-15 cm of terminal ileum was carefully removed and cleaned and placed in Tyrode's Solution of the following composition: NaCl (8 g/l), KCl (0.2 g/l), MgCl2 (0.2 g/l.). CaCl2 (0.2 g/l). NaH2 PO4 (0.05 g/l), NaHCO3 (1.0 g/l) and Glucose (1 g/l). The solution was maintained at 37° C. and gassed with 95%O2 and 5%CO2. Portions of the ileum were placed over a glass rod, a shallow incision was made the length of the mesenteric attachment just severing the outer-longitudinal muscle layer. The longitudinal muscle was separated from the underlying circular muscle by gentle dissection (Rang, H. P. Annals of N.Y. Academy of Science Vol. 144, page 756, (1964)). The tissue was fixed at one end to a tissue holder, the other end was connected by a thread to a force transducer and suspended in a muscle bath containing Tyrode's Solution maintained at 37° C. and gassed with 95%O2 and 5%CO2. An initial tension of 500 mg was applied and the tissue allowed to equilibrate for 60 minutes prior to the start of the study. During this period the tissue was washed every 16 minutes. Each preparation, at 16 minute intervals, was challenged with KCl sufficient to yield a bath K^+ concentration of 80 mMK for 2 minutes, then washed with fresh solution. The 16 minute interval between K^+ challenges was maintained throughout the study. Upon stabilization of the responses to the K^+ challenge the test compound (potential calcium entry antagonist) was introduced into the bath 2 minutes prior to and during the 2 minute exposure to K^+ after which the bath was cleared and washed with fresh solution. Logarithmically increasing doses (up to 10^-4 M) of the potential antagonist were administered as the study progressed.
The measure of compound's ability to inhibit the tonic contraction of muscle is a measure of its activity as a calcium channel blocking agent.

SH rat = assay: Blood pressure lowering in the spontaneously hypertensive (SH) rat; type: in vivo; conditions: 50 mg/kg p.o.; for Duration: duration of SBP lowering
Protocol: BLOOD PRESSURE LOWERING IN THE SPONTANEOUSLY HYPERTENSIVE (SH) RAT
Six male SH rats were used for each test. Body weights were recorded. Six pre-drug control recordings of the systolic blood pressure (mmHg) were measured from the tails of the rats which were unanesthetized and restrained in holders. The rats were previously heated for 5-10 minutes at 32°-34° C. The systolic blood pressure was measured by an occlusion cuff.
The compounds were administered orally to the rats in a composition that included 5% compound and the remainder gum acacia. The blood pressure of the rats was measured over a period of hours following oral administration.
The measure of a compound's ability to decrease blood pressure, is a measure of its ability as an anti-hypertensive agent.

Structure (SMILES)	IC50 (Guinea Pig Ileum) [nM]	Systolic Blood Pressure (SBP) in the SH rat, SBP (Δ mm Hg) (SH rat) [mm Hg]	Duration (SH rat) [h]
COc1ccc([C@@H]2Sc3c(ccc4ccccc34)N(CCN(C)C)C(=O)[C@@H]2O)cc1 (racemic) [C, (±)-cis-5-[2-(dimethylamino)ethyl]-2,3-dihydro-3-hydroxy-2-(4-methoxyphenyl)naphtho[1,2-b]-1,4-thiazepin-4(5H)-one]	520	–	–
COc1ccc([C@@H]2Sc3c(ccc4ccccc34)N(CCN(C)C)C(=O)[C@@H]2OC(C)=O)cc1 (racemic) [D, (±)-cis-3-(acetyloxy)-2,3-dihydro-2-(4-methoxyphenyl)-5-[2-(dimethylamino)ethyl]naphtho[1,2-b]-1,4-thiazepin-4(5H)-one]	230	–	–
COc1ccc([C@@H]2Sc3c(ccc4ccccc34)N(CCN(C)C)C(=O)[C@H]2O)cc1 (racemic) [G, (±)-trans-2,3-dihydro-3-hydroxy-2-(4-methoxyphenyl)-5-[2-(dimethylamino)ethyl]naphtho[1,2-b]-1,4-thiazepin-4(5H)-one]	63000	–	–
COc1ccc([C@@H]2Sc3c(ccc4ccccc34)N(CCN(C)C)C(=O)[C@H]2OC(C)=O)cc1 (racemic) [H, (±)-trans-3-(acetyloxy)-2,3-dihydro-2-(4-methoxyphenyl)-5-[2-(dimethylamino)ethyl]naphtho[1,2-b]-1,4-thiazepin-4(5H)-one]	46000	–	–
COc1ccc([C@@H]2Sc3c(ccc4ccccc34)N(CCN(C)C)C(=O)[C@@H]2OC(C)=O)cc1 [A, (+)-cis-3-(acetyloxy)-2,3-dihydro-2-(4-methoxyphenyl)-5-[2-(dimethylamino)ethyl]naphtho[1,2-b]-1,4-thiazepin-4(5H)-one]	1300	-67 ± 7	19
COc1ccc([C@@H]2Sc3c(ccc4ccccc34)N(CCN(C)C)C(=O)[C@@H]2O)cc1 [B, (+)-cis-5-[2-(dimethylamino)ethyl]-2,3-dihydro-3-hydroxy-2-(4-methoxyphenyl)naphtho[1,2-b]-1,4-thiazepin-4(5H)-one]	1100	-63 ± 9	24
COc1ccc([C@@H]2Sc3c(ccc4ccccc34)N(CCN(C)C)C(=O)[C@@H]2O)cc1 [E, (-)-cis-2,3-dihydro-3-hydroxy-2-(4-methoxyphenyl)-5-[2-(dimethylamino)ethyl]naphtho[1,2-b]-1,4-thiazepin-4(5H)-one]	56000	–	–
